Measurements from the NIST ThermoML archive (doi:10.1007/s10765-011-1052-5).
“And” between values parts separate entries of the source, which are not always exact repeats. Equal entries are not always repeated.

Settings: Fluid (supercritical or subcritical phases), Hot wire method

[He] [helium]
Settings	thermal conductivity
323.19 K, 5030 kPa	0.1676 W/m/K
323.19 K, 10055 kPa	0.1696 W/m/K and 0.1695 W/m/K and 0.1694 W/m/K
323.19 K, 29885 kPa	0.1784 W/m/K and 0.1786 W/m/K
323.19 K, 29886 kPa	0.1782 W/m/K
323.19 K, 29887 kPa	0.1783 W/m/K
323.2 K, 5030 kPa	0.1674 W/m/K and 0.1675 W/m/K and 0.1677 W/m/K
323.21 K, 50067 kPa	0.187 W/m/K
323.21 K, 50070 kPa	0.1872 W/m/K
323.21 K, 50072 kPa	0.1872 W/m/K
323.21 K, 50075 kPa	0.187 W/m/K
323.21 K, 70102 kPa	0.196 W/m/K
323.21 K, 70105 kPa	0.196 W/m/K
323.21 K, 70109 kPa	0.1961 W/m/K
323.21 K, 70112 kPa	0.1964 W/m/K
323.21 K, 98251 kPa	0.2089 W/m/K
323.21 K, 98254 kPa	0.2085 W/m/K
323.21 K, 98259 kPa	0.2085 W/m/K
323.21 K, 98263 kPa	0.2086 W/m/K
373.22 K, 5137 kPa	0.1853 W/m/K
373.22 K, 30213 kPa	0.1948 W/m/K
373.22 K, 30214 kPa	0.1948 W/m/K and 0.1945 W/m/K
373.22 K, 49990 kPa	0.2028 W/m/K
373.22 K, 49992 kPa	0.2028 W/m/K
373.22 K, 49994 kPa	0.2033 W/m/K
373.23 K, 5137 kPa	0.185 W/m/K and 0.1845 W/m/K
373.23 K, 10114 kPa	0.1866 W/m/K and 0.1868 W/m/K
373.23 K, 69936 kPa	0.2139 W/m/K and 0.2138 W/m/K
373.23 K, 69937 kPa	0.214 W/m/K
373.23 K, 97514 kPa	0.2284 W/m/K
373.23 K, 97516 kPa	0.2277 W/m/K
373.23 K, 97527 kPa	0.2275 W/m/K
473.27 K, 5260 kPa	0.2166 W/m/K
473.27 K, 5261 kPa	0.2169 W/m/K
473.27 K, 10172 kPa	0.2187 W/m/K and 0.2183 W/m/K
473.27 K, 10173 kPa	0.2193 W/m/K
473.27 K, 50076 kPa	0.2321 W/m/K
473.27 K, 50078 kPa	0.2322 W/m/K
473.27 K, 50080 kPa	0.2317 W/m/K
473.27 K, 70131 kPa	0.2428 W/m/K
473.27 K, 70135 kPa	0.2422 W/m/K
473.27 K, 70138 kPa	0.2419 W/m/K
473.27 K, 99148 kPa	0.2558 W/m/K
473.27 K, 99151 kPa	0.2549 W/m/K
473.27 K, 99156 kPa	0.2552 W/m/K
473.28 K, 5261 kPa	0.2173 W/m/K
473.28 K, 30084 kPa	0.2252 W/m/K
473.28 K, 30085 kPa	0.2251 W/m/K and 0.226 W/m/K
473.29 K, 99160 kPa	0.2472 W/m/K
573.24 K, 30146 kPa	0.2549 W/m/K
573.24 K, 50100 kPa	0.2618 W/m/K
573.24 K, 70129 kPa	0.2675 W/m/K
573.24 K, 97066 kPa	0.2798 W/m/K
573.24 K, 97071 kPa	0.2805 W/m/K
573.24 K, 97072 kPa	0.2792 W/m/K
573.25 K, 5197 kPa	0.2478 W/m/K
573.25 K, 5199 kPa	0.2472 W/m/K
573.25 K, 5200 kPa	0.2477 W/m/K
573.25 K, 10292 kPa	0.2503 W/m/K
573.25 K, 10294 kPa	0.2496 W/m/K
573.25 K, 10295 kPa	0.2496 W/m/K
573.25 K, 30146 kPa	0.2552 W/m/K
573.25 K, 30149 kPa	0.2558 W/m/K
573.25 K, 50095 kPa	0.2609 W/m/K
573.25 K, 50100 kPa	0.2599 W/m/K
573.25 K, 70160 kPa	0.268 W/m/K
573.25 K, 70165 kPa	0.2662 W/m/K
672.87 K, 98224 kPa	0.3057 W/m/K
672.87 K, 98230 kPa	0.3055 W/m/K
672.87 K, 98231 kPa	0.3054 W/m/K
672.88 K, 30064 kPa	0.2852 W/m/K
672.88 K, 30085 kPa	0.2823 W/m/K
672.88 K, 50184 kPa	0.2882 W/m/K
672.88 K, 70068 kPa	0.293 W/m/K
672.88 K, 70074 kPa	0.2949 W/m/K
672.88 K, 70081 kPa	0.2948 W/m/K
672.89 K, 5417 kPa	0.2774 W/m/K
672.89 K, 10409 kPa	0.2788 W/m/K
672.89 K, 10412 kPa	0.279 W/m/K
672.89 K, 10414 kPa	0.2784 W/m/K
672.89 K, 30054 kPa	0.2843 W/m/K
672.89 K, 50178 kPa	0.2895 W/m/K
672.89 K, 50182 kPa	0.2888 W/m/K
672.9 K, 5413 kPa	0.2765 W/m/K
672.9 K, 5416 kPa	0.277 W/m/K
771.89 K, 50118 kPa	0.3162 W/m/K
771.89 K, 50125 kPa	0.3184 W/m/K
771.89 K, 50128 kPa	0.3182 W/m/K
771.89 K, 70299 kPa	0.3237 W/m/K
771.89 K, 70303 kPa	0.3173 W/m/K
771.89 K, 70305 kPa	0.3224 W/m/K
771.89 K, 99452 kPa	0.3302 W/m/K
771.89 K, 99460 kPa	0.3299 W/m/K
771.89 K, 99462 kPa	0.3321 W/m/K
771.9 K, 30345 kPa	0.3126 W/m/K
771.9 K, 30348 kPa	0.3102 W/m/K
771.9 K, 30350 kPa	0.313 W/m/K
771.91 K, 10197 kPa	0.3094 W/m/K
771.91 K, 10199 kPa	0.3093 W/m/K
771.92 K, 5204 kPa	0.3065 W/m/K
771.93 K, 3005 kPa	0.3046 W/m/K
771.93 K, 3008 kPa	0.3049 W/m/K
771.93 K, 5202 kPa	0.3079 W/m/K
771.94 K, 1059 kPa	0.2998 W/m/K
771.94 K, 1068 kPa	0.3028 W/m/K
771.94 K, 1071 kPa	0.3022 W/m/K
771.94 K, 1074 kPa	0.304 W/m/K
771.94 K, 3001 kPa	0.3012 W/m/K
771.94 K, 3003 kPa	0.3055 W/m/K
